Experimental data: patent US20090227563A1, “HERBICIDAL COMPOSITIONS HAVING IMPROVED EFFECT” (Bayer CropScience AG, priority 2005, published 2009)
“And” between values parts separate entries of the source, which are not always exact repeats. Identical values can stand only once.

Tests used:
Format in all cases: in vivo
[1] = tested on: Lolium multiflorum (LOLMU); assay: Glasshouse trial on activity boost, post-emergence spraying, visual rating
Procedure: (§1) Seeds of monocot and dicot weeds and crop plants are sown in sandy loam soil in wood fibre pots or in plastic pots, and are covered with soil and cultivated under good growth conditions in the glasshouse and also, during the vegetation period, outdoors outside the glasshouse. 2-3 weeks after sowing, the trial plants are treated at the one- to three-leaf stage. The test compounds, formulated as wettable powders (WP) or liquids (EC), are applied by spraying to the plants and the soil surface in various doses, with a water application rate of 300 l/ha (converted) and with the addition of penetrants (0.2% to 0.4%) and where appropriate an ammonium salt. After the trial plants had stood in the glasshouse for about 3 to 4 weeks under optimum growth conditions, the activity of the products was rated visually in comparison to untreated controls (activity in %, i.e. 0%=no activity or as control, 100%=all plants died).
(§2) For rapeseed oil methyl ester (RME) the following tables specify concentration in % a.i. by volume for ammonium sulphate (AMS) in g/l in the spray liquor.
(§3) ALOMY=Alopecurus myosuroides AVEFA=Avena fatua LOLMU=Lolium multiflorum LOLRI=Lolium rigidum
(§4) ALOMY=Alopecurus myosuroides AVEFA=Avena fatua LOLMU=Lolium multiflorum SETVI=Setaria viridis

[2] = tested on: Alopecurus myosuroides (ALOMY); assay: as above
Procedure: as §1, §2, §3, §4
(§5) ALOMY=Alopecurus myosuroides AVEFA=Avena fatua LOLMU=Lolium multiflorum SETVI=Setaria viridis BROER=Bromus erectus

Avena fatua (AVEFA) [3] = assay: as above
Procedure: as §1, §2, §3, §4, §5

Setaria viridis (SETVI) = assay: as above
Procedure: as §1, §2, §4

APESV = assay: as above; details: 5 g/ha
Procedure: as §1

LOLME = assay: as above; details: 5 g/ha
Procedure: as §1

Bromus erectus (BROER) = assay: as above; details: 5 g/ha
Procedure: as §1, §5

[4] = tested on: Alopecurus myosuroides (ALOMY); assay: Plot trials (about 10 m2, 9 trials), post-emergence treatment; details: 5 g/ha, sum of all trials
Procedure: (§6) In plots measuring approximately 10 m^2, in 9 trials, post-emergence treatments were carried out in 2-3 repetitions with compound (I-1-c-1). The weed population was the natural population and/or a sown population specifically geared to the objective. The active ingredient (I-1-c-1) was delivered as an EC formulation at the stated application rates with a penetrant of the formula (III-c-1) at a concentration of 0.3 g/l in 300 l of water, as a tank mix. In the elements of the trial with ammonium sulphate (AMS) the salt was added at 1 g/l to the spray liquor. Evaluation was made on the day of maximum activity. The activities reported in Table 5 are those obtained over the sum of all the trials.
(§7) AGRRE=Agropyron repens ALOMY=Alopecurus myosuroides AVEFA=Avena fatua

Avena fatua (AVEFA) [5] = assay: as above; details: 5 g/ha, sum of all trials
Procedure: as §6, §7

Agropyron repens (AGRRE) = assay: as above; details: 5 g/ha, sum of all trials
Procedure: as §6, §7

Lolium rigidum (LOLRI) = assay: Glasshouse trial on activity boost, post-emergence spraying, visual rating
Procedure: as §1, §2, §3

[6] = 25 g/ha, RME (0.25%) + AMS (3.3 g/l)
[7] = 50 g/ha, RME (0.25%) + AMS (3.3 g/l)
[8] = 12.5 g/ha, RME (0.25%) + AMS (3.3 g/l)
[9] = 100 g/ha, RME (0.25%) + AMS (3.3 g/l)
[10] = 50 g/ha, RME (0.25%) + AMS (0.33 g/l)
[11] = 50 g/ha, RME (0.25%) + AMS (1 g/l)
[12] = 25 g/ha, RME (0.25%) + AMS (0.33 g/l)
[13] = 25 g/ha, RME (0.25%) + AMS (1 g/l)
[14] = Genapol LRO (0.33%) + AMS (3.3 g/l)
[15] = 5 g/ha, Genapol LRO (0.33%) + AMS (3.3 g/l)
[16] = (III-c-1) (0.3 g/l) + AMS (1 g/l)
[17] = 50 g/ha, RME (0.25%) + AMS (6.6 g/l)

CCc1cc(Cl)ccc1C1=C(OC(=O)C(C)C)C2(CCC(C)CC2)NC1=O (stereo not shown) [I-1-b-1]
Activity ([1]; 25 g/ha, RME (0.25%)): 10%
Activity [1, 6]: 25%
Activity ([1]; 50 g/ha, RME (0.25%)): 10%
Activity [1, 7]: 75%
Activity ([2]; 25 g/ha, RME (0.25%)): 5%
Activity [2, 6]: 25%
Activity ([2]; 50 g/ha, RME (0.25%)): 20%
Activity [2, 7]: 75%
Activity (Avena fatua (AVEFA) [3]; 25 g/ha, RME (0.25%)): 15%
Activity (Avena fatua (AVEFA) [3]; [6]): 60%
Activity (Avena fatua (AVEFA) [3]; 50 g/ha, RME (0.25%)): 50%
Activity (Avena fatua (AVEFA) [3]; [7]): 60%

CCc1cc(C)cc(CC)c1C1C(=O)[C@H]2CCCC[C@@H]2C1=O [I-6-a-2]
Activity ([1]; 12.5 g/ha, RME (0.25%)): 5%
Activity [1, 8]: 97%
Activity ([1]; 25 g/ha, RME (0.25%)): 20%
Activity [1, 6]: 100%
Activity ([2]; 12.5 g/ha, RME (0.25%)): 10%
Activity [2, 8]: 75%
Activity ([2]; 25 g/ha, RME (0.25%)): 30%
Activity [2, 6]: 93%
Activity (Avena fatua (AVEFA) [3]; 12.5 g/ha, RME (0.25%)): 10%
Activity (Avena fatua (AVEFA) [3]; [8]): 93%
Activity (Avena fatua (AVEFA) [3]; 25 g/ha, RME (0.25%)): 35%
Activity (Avena fatua (AVEFA) [3]; [6]): 99%

CCc1cc(Br)cc(C)c1C1=C(O)C2(CCC(OC)CC2)NC1=O (stereo not shown) [I-1-a-1]
Activity (Setaria viridis (SETVI); 25 g/ha, RME (0.25%)): 30%
Activity (Setaria viridis (SETVI); [6]): 50%
Activity (Setaria viridis (SETVI); 50 g/ha, RME (0.25%)): 40%
Activity (Setaria viridis (SETVI); [7]): 50%

CC1=CC(=O)C(c2c(C)cc(C)cc2C)C(=O)O1 (stereo not shown) [I-4-a-1]
Activity (Setaria viridis (SETVI); 25 g/ha, RME (0.25%)): 0%
Activity (Setaria viridis (SETVI); [6]): 20%
Activity (Setaria viridis (SETVI); 50 g/ha, RME (0.25%)): 0%
Activity (Setaria viridis (SETVI); [7]): 90%
Activity (Setaria viridis (SETVI); 100 g/ha, RME (0.25%)): 0%
Activity (Setaria viridis (SETVI); [9]): 90%

CCCCO[C@@H]1CCC[C@]2(C1)NC(=O)C(c1c(C)cc(C)cc1C)=C2O [I-1-a-5]
Activity ([1]; 50 g/ha, RME (0.25%)): 5%
Activity [1, 10]: 60%
Activity [1, 11]: 93%
Activity [1, 7]: 95%
Activity ([2]; 25 g/ha, RME (0.25%)): 25%
Activity [2, 12]: 50%
Activity [2, 13]: 50%
Activity [2, 6]: 60%

CCc1cc(C)cc(C)c1C1C(=O)CC2(CCCCC2)C1=O (stereo not shown) [I-6-a-1]
Activity (Setaria viridis (SETVI); 12.5 g/ha, RME (0.25%)): 0%
Activity (Setaria viridis (SETVI); [8]): 25%
Activity (Setaria viridis (SETVI); 25 g/ha, RME (0.25%)): 15%
Activity (Setaria viridis (SETVI); [6]): 90%
Activity (Setaria viridis (SETVI); 50 g/ha, RME (0.25%)): 25%
Activity (Setaria viridis (SETVI); [7]): 90%

CCOC(=O)OC1=C(c2c(CC)cc(Cl)cc2OC)C(=O)NC12CCC(OC)CC2 (stereo not shown) [I-1-c-1]
Activity (APESV; Genapol LRO (0.33%)): 93%
Activity (APESV; [14]): 97%
Activity (LOLME; Genapol LRO (0.33%)): 86%
Activity (LOLME; [14]): 97%
Activity (Bromus erectus (BROER); Genapol LRO (0.33%)): 73%
Activity (Bromus erectus (BROER); [14]): 97%
Activity ([2]; 5 g/ha, Genapol LRO (0.33%)): 73%
Activity [2, 15]: 99%
Activity (Avena fatua (AVEFA) [3]; 5 g/ha, Genapol LRO (0.33%)): 75%
Activity (Avena fatua (AVEFA) [3]; [15]): 100%
Activity [4, 16]: 72%
Activity ([4]; (III-c-1) (0.3 g/l)): 67%
Activity (Avena fatua (AVEFA) [5]; [16]): 90%
Activity (Avena fatua (AVEFA) [5]; (III-c-1) (0.3 g/l)): 80%
Activity (Agropyron repens (AGRRE); [16]): 90%
Activity (Agropyron repens (AGRRE); (III-c-1) (0.3 g/l)): 80%

CCc1cc(Br)cc(Cl)c1C1=C(O)C(C)(C2CC2)NC1=O (stereo not shown) [I-1-a-2]
Activity (Setaria viridis (SETVI); 12.5 g/ha, RME (0.25%)): 5%
Activity (Setaria viridis (SETVI); [8]): 60%
Activity (Setaria viridis (SETVI); 25 g/ha, RME (0.25%)): 20%
Activity (Setaria viridis (SETVI); [6]): 90%
Activity (Setaria viridis (SETVI); 50 g/ha, RME (0.25%)): 50%
Activity (Setaria viridis (SETVI); [7]): 93%

CCc1cc(C)cc(CC)c1-c1c(OC(=O)C(C)(C)C)n2n(c1=O)CCOCC2 [I-8-b-1]
Activity ([1]; 25 g/ha, RME (0.25%)): 60%
Activity [1, 6]: 93%
Activity ([1]; 50 g/ha, RME (0.25%)): 97%
Activity [1, 7]: 100%
Activity ([2]; 25 g/ha, RME (0.25%)): 20%
Activity [2, 12]: 70%
Activity [2, 13]: 50%
Activity [2, 6]: 80%
Activity ([2]; 50 g/ha, RME (0.25%)): 90%
Activity [2, 7]: 95%
Activity (Avena fatua (AVEFA) [3]; 25 g/ha, RME (0.25%)): 30%
Activity (Avena fatua (AVEFA) [3]; [6]): 80%
Activity (Avena fatua (AVEFA) [3]; 50 g/ha, RME (0.25%)): 70%
Activity (Avena fatua (AVEFA) [3]; [10]): 90%
Activity (Avena fatua (AVEFA) [3]; [11]): 95%
Activity (Avena fatua (AVEFA) [3]; [7]): 97%

CCc1cc(Cl)cc(OC)c1-c1c(O)n2n(c1=O)CCCC2 [I-8-a-1]
Activity ([1]; 12.5 g/ha, RME (0.25%)): 10%
Activity [1, 8]: 70%
Activity ([1]; 25 g/ha, RME (0.25%)): 80%
Activity [1, 6]: 95%
Activity ([2]; 12.5 g/ha, RME (0.25%)): 5%
Activity [2, 8]: 50%
Activity ([2]; 25 g/ha, RME (0.25%)): 50%
Activity [2, 6]: 70%
Activity (Avena fatua (AVEFA) [3]; 12.5 g/ha, RME (0.25%)): 30%
Activity (Avena fatua (AVEFA) [3]; [8]): 70%
Activity (Avena fatua (AVEFA) [3]; 25 g/ha, RME (0.25%)): 40%
Activity (Avena fatua (AVEFA) [3]; [6]): 80%

CCc1cc(C)cc(OC)c1C1=C(O)C2CCCN2C1=O (stereo not shown) [I-1-a-3]
Activity (Setaria viridis (SETVI); 25 g/ha, RME (0.25%)): 15%
Activity (Setaria viridis (SETVI); [6]): 70%
Activity (Setaria viridis (SETVI); 50 g/ha, RME (0.25%)): 93%
Activity (Setaria viridis (SETVI); [7]): 95%
Activity (Setaria viridis (SETVI); 100 g/ha, RME (0.25%)): 93%
Activity (Setaria viridis (SETVI); [9]): 99%

CCc1cc(C)cc(Br)c1C1=C(O)C(C)(C)NC1=O [I-1-a-6]
Activity (Setaria viridis (SETVI); 12.5 g/ha, RME (0.25%)): 50%
Activity (Setaria viridis (SETVI); 12.5 g/ha, RME (0.25%) + AMS (0.33 g/l)): 65%
Activity (Setaria viridis (SETVI); 12.5 g/ha, RME (0.25%) + AMS (1 g/l)): 75%
Activity (Setaria viridis (SETVI); [8]): 90%
Activity ([1]; 50 g/ha, RME (0.25%)): 5%
Activity [1, 10]: 20%
Activity [1, 11]: 50%
Activity [1, 7]: 65%

CCc1cccc(CC)c1C1=C(O)[C@]2(CC[C@H](OC)CC2)NC1=O [I-1-a-4]
Activity ([1]; 25 g/ha, RME (0.25%)): 2%
Activity [1, 6]: 75%
Activity ([1]; 50 g/ha, RME (0.25%)): 5%
Activity [1, 7]: 90%
Activity ([2]; 25 g/ha, RME (0.25%)): 3%
Activity [2, 6]: 50%
Activity ([2]; 50 g/ha, RME (0.25%)): 5%
Activity [2, 7]: 70%
Activity (Avena fatua (AVEFA) [3]; 25 g/ha, RME (0.25%)): 3%
Activity (Avena fatua (AVEFA) [3]; [6]): 10%
Activity (Avena fatua (AVEFA) [3]; 50 g/ha, RME (0.25%)): 5%
Activity (Avena fatua (AVEFA) [3]; [7]): 30%

CCc1cc(-c2ccc(Cl)cc2)cc(C)c1C1=C(O)C2(CCC(OC)CC2)OC1=O (stereo not shown) [I-2-a-1]
Activity (Lolium rigidum (LOLRI); 25 g/ha, RME (0.25%)): 20%
Activity (Lolium rigidum (LOLRI); 50 g/ha, RME (0.25%)): 40%
Activity (Lolium rigidum (LOLRI); [17]): 80% and 40%
Activity ([1]; 25 g/ha, RME (0.25%)): 30%
Activity ([1]; 50 g/ha, RME (0.25%)): 70%
Activity ([2]; 50 g/ha, RME (0.25%)): 30%
Activity [2, 17]: 70%
Activity ([2]; 100 g/ha, RME (0.25%)): 30%
Activity ([2]; 100 g/ha, RME (0.25%) + AMS (6.6 g/l)): 70%
